IC50 data for 86 molecules are collected here from PubChem BioAssay AID2305 (GlaxoSmithKline (GSK), 2010).

In the assay the test system is P. falciparum 3D7 growth, pLDH absorbance. As to the kind of experiment: P. falciparum 3D7 growth inhibition, dose response, strain 3D7 (AID 2305).

Values joined by “and” are separate entries in the source; they are usually repeats but may differ in a detail not shown here. Equal entries are not always repeated.

By IC50 is commonly meant the midpoint of a concentration-inhibition curve. A high value points to weaker potency. With `CN(C)CCNC(=O)c1cccc(-c2cnc3ccc(NCc4ccc(Cl)c(Cl)c4)nn23)c1`, the half-maximal inhibitory concentration (IC50) worked out at 700 nM.

`COc1ccc(-c2cccc(NC(=O)c3ccc(Cl)cc3)c2)cc1CN1CCCN(C)CC1` came in with an IC50 of 390 nM. Molecule `Cc1ccc2nc3c(cc(C(=O)NCc4ccccc4)c(=N)n3CCCn3ccnc3)c(=O)n2c1` had a half-maximal inhibitory concentration (IC50) of 990 nM. `CCCC(=O)c1cnc2cc(O)ccc2c1Nc1ccccc1C` returned an IC50 of 650 nM. The figure for `CC[C@H]1CN2CCc3cc(OC)c(OC)cc3[C@@H]2C[C@@H]1C[C@H]1NCCc2cc(OC)c(OC)cc21` is 210 nM. The figure for `CCc1cn(C)c2c(N3CCCC3=O)cc(C(=O)N[C@@H](Cc3ccccc3)[C@H](O)CNC3CCCCC3)cc12` is 120 nM; for `O=C(/C=C/c1c(Cl)cccc1Cl)NC1CCC(CN2CCC(c3c[nH]c4ccccc34)CC2)CC1` (stereo unspecified) it is 370 nM and 810 nM; for `CO/C(=C\C=C\c1cc2cc(Cl)ccc2[nH]1)C(=O)NCCCN1CCN(c2cc(Cl)ccc2OC)CC1` it is 880 nM. The figure for `Nc1cc2c(C3CCN(CC4CCN(C(=O)/C=C/c5ccc(Cl)c(Cl)c5)CC4)CC3)c[nH]c2cn1` is 970 nM; for `COc1ccc(C2CC(=O)C3=C(C2)NC(C)=C(C(=O)OC(C)C)C3c2cccc(O)c2)cc1OC` (stereo unspecified) it is 780 nM.

`OCCNc1nc(Nc2ccc(Cl)cc2)nc2ccccc12` returned an IC50 of 710 nM. This IC50 and that of the molecule before are within 1.5-fold of each other. Turning to `CCN(CC)CCCNc1c2ccccc2nc2ccccc12`, the concentration for half-maximal inhibition (IC50) was 750 nM. Take `O=C(/C=C/c1ccc(Cl)c(Cl)c1)NCCCCCN1CCCC(CCCNC(=O)Nc2ccc(C(F)(F)F)cc2)C1` (stereo unspecified): the half-inhibitory concentration (IC50) came out at 530 nM. The IC50 values of the last two molecules are within 1.5-fold of each other. `c1ccc([C@H]2CN3CCSC3=N2)cc1` showed an IC50 of 620 nM. The figure for `CCCCOc1c(CCC)cc(Cc2cnc(N)nc2N)cc1CCC` is 630 nM.

`CN(C)c1ccc(C2(c3ccccc3)N=C(N)N(CCCc3ccccc3)C2=O)cc1` (stereo unspecified) registered an IC50 of 970 nM. `COc1ccc(-c2cccc(NC(=O)c3ccc(C#N)cc3)c2)cc1CN1CCCC1` displayed an IC50 of 700 nM. The figure for `Cc1cc(N[C@@H](CC(C)C)C(=O)NCc2cccs2)nc(NCCc2cccs2)n1` is 1020 nM; for `O=C(N[C@@H](Cc1ccccc1)C(=O)NC1CCCCC1)c1ccc(O)c(-c2cccc(C(F)(F)F)c2)c1` it is 810 nM; for `COc1cc(C(=O)NC2CCC(CN3CCC(c4c[nH]c5ccccc45)CC3)CC2)cc(Cl)n1` (stereo unspecified) it is 690 nM. The figure for `Cc1cccc2[nH]c(-c3ccc(-c4cccc(CNCCNC(=O)c5ccnn5C)c4)s3)nc12` is 220 nM. The figure for `Cc1ccc(/C=C/C(=O)NCCCCCN2CCCN(C(=O)Nc3ccc(Cl)c(Cl)c3)CC2)cc1` is 940 nM.

For the molecule `COc1c(CCNCCCCNCCc2cc(Cl)c3ccccc3c2OC)cc(Cl)c2ccccc12`, the IC50 came to 170 nM. The figure for `COc1ccc2nccc(N3CCN(CCNCc4ccc5c(n4)NC(=O)CS5)CC3)c2c1` is 950 nM; for `Cc1noc(-c2ccccc2)c1CN1CCCC2(CC(C(=O)NCc3cccc(F)c3F)=NO2)C1` (stereo unspecified) it is 1010 nM. The figure for `O=C(NC1CCN(Cc2ccccc2)CC1)c1cc(-c2ccncc2)nc2ccc(Cl)cc12` is 920 nM; for `O=C(Nc1ccc(C(F)(F)F)cc1)NC1CCN(c2ccnc3cc(Cl)ccc23)C1` (stereo unspecified) it is 140 nM. The figure for `COc1ccc(NC(=O)Nc2ccc(-c3ccc(-c4nc5c(C)cccc5[nH]4)s3)cc2)cc1` is 180 nM; for `Fc1ccc2nc(-c3ccc(-c4ccc(CNCC5CCCO5)cc4)s3)[nH]c2c1` (stereo unspecified) it is 600 nM; for `C[C@@H]1CN(c2ccnc3ccc(Sc4ccc(Oc5ccccc5)cc4)cc23)C[C@H](C)N1` it is 780 nM.

In turn, `COc1cc(O)c2c(=O)c(OC)c(-c3cccc(Cl)c3OC3O[C@H](CO)[C@@H](O)[C@H](O)[C@H]3O)oc2c1OC` (stereo partly specified) came in with an IC50 of 770 nM. Turning to `COc1ccccc1N1CCN(Cc2c(NC(C)=O)sc(C)c2C)CC1`, the IC50 stood at 430 nM. The figure for `CN(C)C(=S)N=Nc1c(O)[nH]c2ccc(OC(F)(F)F)cc12` is 1020 nM.

`Cc1ccc(N2CCN(CCCCNC(=O)c3ccc(NC(=O)c4ccc(Cl)cc4)cc3)CC2)c(C)c1` had an IC50 of 760 nM. `CCCNC(=O)C1Cc2cc(OC)c(OC)cc2C2(N1)C(=O)N(Cc1cccc(OC)c1)c1ccccc12` (stereo unspecified) yielded an IC50 of 860 nM. This IC50 and that of the molecule before are within 1.5-fold of each other. The figure for `Fc1ccc2cc(C=Cc3ccncc3)[nH]c2c1` is 620 nM; for `O=C(NCc1ccc(Cl)c(Cl)c1)c1ccc(C2CCCN(Cc3ccc4nc[nH]c4c3)C2)cc1` (stereo unspecified) it is 780 nM; for `COc1cc2nc(-c3ccccc3)nc(N3CCN(CC(=O)N4CCCC4)CC3)c2cc1OC` it is 1130 nM. The figure for `Cc1cccc2[nH]c(-c3cccc(-c4cccc(NC(=O)C5CC(=O)Nc6ccccc65)c4)c3)nc12` (stereo unspecified) is 60 nM; for `Cc1cc(-c2nc3ccc(C(=O)NCc4ccccc4)cc3n2C2CCN(C(=O)c3ccc(-c4ccccc4)cc3)CC2)ccn1` it is 900 nM. For `Nc1c(-c2ccc(C(=O)NCCNCc3ccccc3)cc2)cnn1-c1ccc(C(F)(F)F)cc1`, the 50% inhibitory concentration (IC50) came out at 1160 nM. The IC50 values of the last two molecules are within 1.5-fold of each other. Consider `CCN1CC[C@]2(c3cccc(OC)c3)Cc3nc4ccccc4c(-c4ccccc4)c3C[C@H]2C1`, for which the IC50 was 350 nM. Against the preceding molecule, the IC50 is about 3.3-fold lower.

In turn, `Clc1ccc(Nc2nc(NCc3ccccc3)nc(N/N=C/c3ccccn3)n2)cc1` gave an IC50 of 780 nM. This IC50 is about 2.2-fold higher than that of the molecule before. Regarding `Cc1cnc(Nc2cccnc2)nc1Nc1ccccc1C(=O)NC(C)C`, the IC50 turned out to be 1200 nM. `N#Cc1ccc(NC(=O)Nc2ccc3c(c2)CCN(C2CCC2)CC3)cc1` yielded an IC50 of 630 nM. Compared with the last molecule, the IC50 is about 1.9-fold lower. In the case of `Cc1cc(N[C@@H](Cc2ccccc2)C(=O)NCc2cccc(F)c2)nc(NCCc2ccc(F)cc2)n1`, the half-maximal inhibitory concentration (IC50) was 650 nM. The molecule `NCc1ccc(-c2cccc(CNC3CCN(Cc4ccccc4)CC3)c2)cc1` had a half-maximal inhibitory concentration (IC50) of 670 nM. `Cc1cc(C(=O)Nc2ccc(OCc3ccccc3)cc2)on1` showed a half-inhibitory concentration (IC50) of 990 nM. The figure for `O=C(CCCCCNC(=O)c1ccc(O)c(-c2ccc(Cl)c(Cl)c2)c1)NC1CCCc2ccccc21` (stereo unspecified) is 760 nM; for `CSc1cccc(Nc2nc3ccc(S(=O)(=O)NC(C)C(C)C)cc3n2[C@H](C)C(C)(C)C)c1` (stereo partly specified) it is 450 nM; for `COc1ccc2nccc([C@@H](O)CN3CCC(NC(=O)C(c4ccsc4)N4CCN(c5ccccc5)CC4)CC3)c2c1` (stereo partly specified) it is 440 nM. `Cc1nc(N)nc(N)c1-c1cc(Cl)c(Cl)c(Cl)c1` had an IC50 of 830 nM. The figure for `Cc1[nH]c(C)c(-c2ccc(Cl)cc2)c(=O)c1I` is 670 nM; for `Cc1ccc(NC(=O)c2cccc(CN3CCCN(Cc4cccc(O)c4)CC3)c2)cc1` it is 1310 nM. The figure for `CN1CCN(c2ccc(-c3cccc(NC(=O)c4cccc(Cl)c4)c3)nn2)CC1` is 580 nM; for `O=C(NCc1ccc(F)cc1)Nc1ccc(-c2cccc(-c3nc4ccc(F)cc4[nH]3)c2)cc1` it is 1120 nM. `COc1cc2nc(N3CCC(CNC(=O)c4ccc(-c5ccc(C#N)cc5C)cc4)CC3)nc(N)c2cc1OC` gave an IC50 of 180 nM. This IC50 is about 6.2-fold lower than that of the molecule before. The figure for `NC(=NCc1ccc(Cl)c(Cl)c1)NC(=NCCCCCCN=C(NC(N)=NCc1ccc(Cl)c(Cl)c1)N1CCCCC1)N1CCCCC1` is 570 nM; for `CCc1ccc(-c2nc3cc(NC(=O)c4ccc([N+](=O)[O-])o4)ccc3o2)cc1` it is 250 nM; for `O=C(NC1CCC(N2CCN(c3cccc(C(F)(F)F)c3)CC2)CC1)c1cc2ccccc2[nH]1` (stereo unspecified) it is 720 nM.

With `CN1CCN(c2ccc3nc(-c4ccc5nc(-c6ccc(O)cc6)[nH]c5c4)[nH]c3c2)CC1`, the 50% inhibitory concentration (IC50) was 120 nM.

For `Cc1ccc(CN2CCCN(Cc3cccc(C(=O)Nc4ccc(C(C)(C)C)cc4)c3)CC2)s1`, the IC50 is 1130 nM. Regarding `CNc1nc(Nc2ccccc2C)nc2ccccc12`, the IC50 was 440 nM. The figure for `NC(=O)c1cnc2cc(-c3ccoc3)ccc2c1Nc1ccc(NC(=O)Nc2ccccc2Cl)cc1` is 540 nM; for `CN1CCC(COC(=O)C(O)(c2ccccc2)c2ccccc2)C1` (stereo unspecified) it is 1000 nM. The figure for `Cc1nc(N)nc(N)c1-c1ccc(Cl)cc1` is 770 nM; for `O=C(Nc1ccc2c(c1)OCO2)NC1CCN(c2ccnc(Nc3ccc(F)cc3)n2)C1` (stereo unspecified) it is 740 nM; for `CC(C)CCNc1nc(NCCc2ccccc2)c2cc(O)ccc2n1` it is 240 nM. In turn, `COc1cc2nc(NCCc3ccccc3)nc(NC(C)c3ccccc3)c2cc1OC` (stereo unspecified) returned a concentration for half-maximal inhibition (IC50) of 280 nM. Regarding `CCOc1ccc2c(NN=Cc3ccccn3)cc(C)nc2c1`, the IC50 came to 860 nM.

In turn, `CC(Cc1ccc(OCCN2CCN(c3cccc(C(F)(F)F)c3)CC2)cc1)NCC(O)c1cccc(C(F)(F)F)c1` (stereo unspecified) came in with a half-maximal inhibitory concentration (IC50) of 180 nM. The molecule `CNC(=O)c1ccc2nc(C3CC3)n(CC3CCN(S(=O)(=O)c4cccc(Cl)c4)CC3)c2c1` gave an IC50 of 650 nM. The figure for `c1cc(CNCCN2CCNCC2)cc(-c2ccc(-c3nc4ccccc4[nH]3)cc2)c1` is 1080 nM; for `CCCCCC1c2[nH]c3ccccc3c2CCN1C(=O)OCc1ccccc1` (stereo unspecified) it is 390 nM.

Turning to `CC[C@H]1CN(C/C=C/c2ccc(OC)cc2)CC[C@H]1CCCc1ccnc2ccc(O)cc12`, the IC50 stood at 660 nM. The figure for `O=C(Nc1cccc(-c2nn3ccccc3c2-c2ccnc(Nc3ccc(Cc4ccncc4)cc3)n2)c1)c1c(F)cccc1F` is 300 nM; for `c1ccc(-n2ncc(CNCc3ccc(-c4ccc(-c5nc6ccccc6[nH]5)s4)cc3)n2)cc1` it is 1400 nM; for `Cc1nc(N)nc(N)c1CCCOc1ccc(Br)cc1` it is 490 nM. In turn, `CCOC(=O)c1ccc(NCc2ccccn2)cc1` showed a 50% inhibitory concentration (IC50) of 630 nM. Molecule `CNS(=O)(=O)c1ccc2c(c1)nc(C1CCN(CC3CCC(NC(=O)/C=C/c4ccc(Cl)c(Cl)c4)CC3)CC1)n2C` (stereo unspecified) gave a concentration for half-maximal inhibition (IC50) of 670 nM. The figure for `Cc1ccc(CN2CCN(Cc3cccc(NC(=O)c4cccs4)c3)CC2)cc1C` is 1030 nM; for `CN(C)C(CNC(=O)c1cc(-c2ccncc2)c(-c2ccc(NC(=O)Nc3cccc(F)c3)cc2)o1)c1ccccc1` (stereo unspecified) it is 770 nM; for `COc1ccc2ncc(C#N)c(CCN3CCC(NCc4ccc5c(c4)NC(=O)CO5)CC3)c2c1` it is 590 nM.

Consider `O=C(NC1CCN(Cc2ccc(O)cc2)CC1)c1ccc(Cl)c(Cl)c1`, for which the IC50 was determined as 1180 nM. The figure for `O=C(/C=C/c1ccc(Cl)c(Cl)c1)NCCCCCN1CCCN(C(=O)Nc2ccc(Br)cc2)CC1` is 780 nM; for `CC[C@H](C)[C@H](NC(=O)[C@H](CC1CCCCC1)[C@H](CC)N(O)C=O)C(=O)Nc1ccccn1` it is 180 nM.
